Data on 15 compounds can be found in patent US20040110768A1, “Bombesin receptor antagonists” (priority 2000, published 2004).

What is called melting point is the temperature, or range, at which the solid turns liquid.

Where a name gives a salt, the structure may show the parent alone.

For data set [1], the system named is Ovariectomised adult female Sprague Dawley rats. The data set is described as follows: Female rat sexual proceptivity test. The settings on record: for difference in the percentage of time spent investigating the male stimuli minus female stimuli / MED, difference in percentage of time spent investigating male minus female stimuli: 1 h before test. It counts as in vivo. Here is the method: Ovariectomised adult female Sprague Dawley rats (180-200 g) were housed in groups of 6 in a reversed lighting system of 12 h light:dark (lights off 7.00-19.00 h). Two weeks after ovariectomy they were used for sexual activity tests. Animals were Adapted to the apparatus (in the absence of stimuli animals) for 10 min on 2 Consecutive days prior to testing. The experiments started at least 5 h into the dark period. Tests were carried out in a circular arena of 90 cm diameter, surrounded by a 30 cm high wall. Two small cages with wire-mesh front (15×15 cm) are fixed into the wall such that the front of the cage is “flush” with the wall and the 2 cages are opposite each other. They contain two stimuli animals: an intact sexually experienced male and a receptive female (ovariectomised, primed with 5 μg oestradiol benzoate dissolved in corn oil and injected subcutaneously 48 h before the test and with 0.5 mg of progesterone 4 h before the test). Sexually naïve test and control animals were used. Forty eight hours before the tests, both the test and control animals were primed with 5 μg oestradiol benzoate. Test animals were treated with the above compound (1)(30-100 mg/kg) which was dissolved in PEG 200 vehicle and administered orally in a 1 ml/kg volume 1 h before each test. For animals used as positive controls, progesterone (0.5 mg/0.1 ml) was dissolved in corn oil and administered subcutaneously (s.c.), 4 h before the test. Test and control animals were introduced one at a time for 10-minute periods into the arena. During the 10-min test, the time that the test or positive control animal spent investigating each stimulus animal was noted. The arena was thoroughly cleaned between animals. The position of the male/female stimuli boxes was randomised between animals, in order to avoid place preference. The difference in the percentage of time spent investigating male minus female was calculated, out of the total time spent investigating stimuli animals.
Example 21 was repeated except that compound (1) (3-30 mg/kg) was dissolved in 0.5% methyl cellulose and was administered p.o. in a dosing volume of 3 ml/kg 1 h before tests. Progesterone (0.5 mg/0.1 ml) was dissolved in corn oil and administered s.c., 4 h before test, as a positive control.

The test system is the same in data set [2]. Put plainly: Female rat sexual receptivity test (lordosis quotient). It counts as in vivo. Here is the method:
Ovariectomised adult female Sprague Dawley rats (180-200 g) were housed in groups of 6 in a reversed lighting system of 12 h light:dark (lights off 7.00-19.00 h). Two weeks after ovariectomy they were used for sexual activity tests. The experiments started at least 5 h into the dark period. Compound (1) was dissolved in PEG 200 vehicle and administered orally. Quinelorane dihydrochloride (LY 163,502, 6.25 μg/kg) was dissolved in water and administered s.c., as a positive control. Both compounds were administered in a 1-ml/kg volume. Forty eight hours before tests, the animals were primed with 5 μg oestradiol benzoate dissolved in corn oil and injected s.c. The females were placed with a series of vigorous male rats and subjected to 10 mounts. The lordotic response of the animal was recorded and expressed as a percentage of the mounts (i.e. lordosis quotient, LQ). […] Animals showing higher LQ were not included in the study. Each rat was tested prior to administration of the compound (1) and then tested similarly at 1 h and at 90 min post-injection of compound (1) or quinelorane respectively.

Compound `COc1ccc(C2(CNC(=O)[C@](C)(Cc3c[nH]c4ccccc34)Nc3nc(-c4ccc([N+](=O)[O-])cc4)co3)CCCCC2)nc1` [Example 1, (S)-3-(1H-Indol-3-yl)-N-[1-(5-methoxy-pyridin-2-yl)-cyclohexylmethyl]-2-methyl-2-[4-(4-nitro-phenyl)-oxazol-2-ylamino]-propionamide] showed a melting point of 100 to 105 °C. Moreover, in data set [1] (0.5% methyl cellulose, p.o., 3-30 mg/kg), the “difference in the percentage of time spent investigating the male stimuli minus female stimuli” value is given as “increased”. In data set [1] (0.5% methyl cellulose, p.o.), the “MED, difference in percentage of time spent investigating male minus female stimuli” value worked out at 10 mg/kg. Moreover, the “difference in the percentage of time spent investigating the male stimuli minus female stimuli” value in data set [1] (PEG 200 vehicle, oral, 30-100 mg/kg) is reported as “increased”. Besides, the “MED, difference in percentage of time spent investigating male minus female stimuli” value in data set [1] (PEG 200 vehicle, oral) is recorded as 100 mg/kg. The “increase in potency in methyl cellulose compared to PEG 200 vehicle” value in data set [1] (oral, MED 10 vs 100 mg/kg) was determined as 10 fold. In addition, in data set [2] (PEG 200, single oral administration, 10-100 mg/kg, 1 h after administration), the “lordosis quotient (LQ) versus before administration” value is “increased”.

For `COCC1(CNC(=O)[C@](C)(Cc2c[nH]c3ccccc23)Nc2nc(-c3ccc([N+](=O)[O-])cc3)co2)CCCCC1` [Example 2, (S)-3-(1H-Indol-3-yl)-N-(1-methoxymethyl-cyclohexylmethyl)-2-methyl-2-[4-(4-nitro-phenyl)-oxazol-2-ylamino]-propionamide], the melting point lay in the range of 189 to 192 °C.

In turn, `C[C@@](Cc1c[nH]c2ccccc12)(Nc1nc(-c2ccc([N+](=O)[O-])cc2)co1)C(=O)NCC(=O)c1ccccc1` [Example 3, (S)-3-(1H-Indol-3-yl)-2-methyl-2-[4-(4-nitro-phenyl)-oxazol-2-ylamino]-N-(2-oxo-2-phenyl-ethyl)-propionamide] returned a melting point of 80 to 90 °C.

`COc1ccc(C2(CNC(=O)[C@](C)(Cc3c[nH]c4ccccc34)Nc3nc(-c4ccc(C#N)cc4)co3)CCCCC2)nc1` [Example 5, (S)-2-[4-(4-Cyano-phenyl)-oxazol-2-ylamino]-3-(1H-indol-3-yl)-N-[1-(5-methoxy-pyridin-2-yl)-cyclohexylmethyl]-2-methyl-propionamide]: the melting point lay in the range of 105 to 108 °C.

In turn, `COc1ccc(C2(CNC(=O)[C@](C)(Cc3c[nH]c4ccccc34)Nc3nc(-c4ccccc4)co3)CCCCC2)nc1` [Example 6, (S)-3-(1H-Indol-3-yl)-N-[1-(5-methoxy-pyridin-2-yl)-cyclohexylmethyl]-2-methyl-2-(4-phenyl-oxazol-2-ylamino)-propionamide] registered a melting point of 85 to 90 °C.

As to `CCc1coc(N[C@@](C)(Cc2c[nH]c3ccccc23)C(=O)NCC2(c3ccc(OC)cn3)CCCCC2)n1` [Example 7, (S)-2-(4-Ethyl-oxazol-2-ylamino)-3-(1H-indol-3-yl)-N-[1-(5-methoxy-pyridin-2-yl)-cyclohexylmethyl]-2-methyl-propionamide], the melting point lay within 60 to 65 °C.

`COc1ccc(C2(CNC(=O)[C@](C)(Cc3c[nH]c4ccccc34)Nc3nc(-c4ccc([N+](=O)[O-])cc4)cs3)CCCCC2)nc1` [Example 8, (S)-3-(1H-Indol-3-yl)-N-[1-(5-methoxy-pyridin-2-yl)-cyclohexylmethyl]-2-methyl-2-[4-(4-nitro-phenyl)-thiazol-2-ylamino]-propionamide]: the melting point fell in the range of 110 to 114 °C.

For the compound `C[C@@](Cc1c[nH]c2ccccc12)(Nc1nc2ccccc2o1)C(=O)NCC1(c2ccccn2)CCCCC1` [Example 9, (S)-2-(Benzooxazol-2-ylamino)-3-(1H-indol-3-yl)-2-m thyl-N-(1-pyridin-2-yl-cyclohxylmethyl)-propionamide], the melting point is 198 to 200 °C.

With `C[C@@](Cc1c[nH]c2ccccc12)(Nc1ccncc1)C(=O)NCC1(c2ccccn2)CCCCC1` [Example 10, (S)-3-(1H-Indol-3-yl)-2-methyl-2-(pyridin-4-ylamino)-N-(1-pyridin-2-yl-cyclohexylmethyl)-propionamide], the melting point was in the range of 180 to 195 °C.

Compound `C[C@@](Cc1c[nH]c2ccccc12)(Nc1cncc2ccccc12)C(=O)NCC1(c2ccccn2)CCCCC1` [Example 11, (S)-3-(1H-Indol-3-yl)-2-(isoquinolin-4-ylamino)-2-methyl-N-(1-pyridin-2-yl-cyclohexylmethyl)-propionamide] gave a melting point of 98 to 101 °C.

The compound `C[C@@](Cc1c[nH]c2ccccc12)(Nc1cncnc1)C(=O)NCC1(c2ccccn2)CCCCC1` [Example 12, (S)-3-(1H-Indol-3-yl)-2-methyl-N-(1-pyridin-2-yl-cyclohexylmethyl)-2-(pyrimidin-5-ylamino)-propionamide] came in with a melting point of 95 to 98 °C.

Consider `Cc1cccc(N[C@@](C)(Cc2c[nH]c3ccccc23)C(=O)NCC2(c3ccccn3)CCCCC2)c1` [Example 14, (S)-3-(1H-Indol-3-yl)-2-methyl-N-(1-pyridin-2-yl-cyclohexylmethyl)-2-m-tolylamino-propionamide], for which the melting point lay in the range of 70 to 75 °C.

The compound `C[C@@](Cc1c[nH]c2ccccc12)(NCc1ccc([N+](=O)[O-])cc1)C(=O)NCC1(c2ccccn2)CCCCC1` [Example 19, (S)-3-(1H-Indol-3-yl)-2-methyl-2-(4-nitro-benzylamino)-N-(1-pyridin-2-yl-cyclohexylmethyl)-propionamide] returned a melting point of 58 to 60 °C.

Take `CC(=O)[C@H]1CC[C@H]2[C@@H]3CCC4=CC(=O)CC[C@]4(C)[C@H]3CC[C@]12C` [progesterone, reference compound]: the “effect on proceptivity (positive control)” value in data set [1] (0.5 mg/0.1 ml in corn oil s.c., 4 h before test) was “maximal”.

Regarding `CCCN1CCC[C@@H]2Cc3nc(N)ncc3C[C@H]21` [quinelorane, Quinelorane dihydrochloride, reference compound], the “lordosis quotient (LQ) versus before administration” value in data set [2] (6.25 μg/kg s.c. in water, 90 min after administration) is “significantly (P<0.01) increased”.
